Measured values reported in US20150344540A1, “NOVEL GLP-1 RECEPTOR AGONISTS WITH CHOLESTEROL EFFLUX ACTIVITY” (NOVO NORDISK A/S, priority 2012, published 2015).
Where two headings read alike, the source gives them in different places. Values belong to the molecule of their own block, whether it stands above or below them. Where a SMILES comes first, the peptide text is derived from it. [ ]: non-standard residue; d: D form. Aib = CC(C)(N)C(=O)O

Experiments:
human GLP-1 receptor [1] = biological target: human GLP-1 receptor (human, UniProt P43220)
[2] = tested on: Mouse monocyte/macrophage cell line, RAW 264.7; assay: Cholesterol efflux assay (3H-cholesterol, macrophage cell line); type: cell-based; details: RAW 264.7, 4 hrs incubation, 0.1% human serum albumin; for 4 h Cholesterol Efflux Emax: ABCA1-mediated efflux
[3] = Pharmacokinetics in normal mice after i.v. and s.c. administration; type: in vivo, female C57B1/6J mice
[4] = Pharmacokinetics in mini-pigs after i.v. administration; details: female, Göttingen, minipig, iv, 5 nmol/kg
In short: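 Female Göttingen mini-pigs (15-20 kg, N=3) received 5 nmol/kg i.v. via central venous catheter. Plasma levels of N-terminally intact peptide measured by LOCI immunoassay with N-terminal and mid-/C-terminal antibodies; non-compartmental analysis of individual profiles.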

human GLP-1 receptor [5] = biological target: T1, human GLP-1 receptor (Homo sapiens, UniProt P43220); assay: Functional GLP-1 receptor assay, in vitro potency (CRE luciferase; whole cells); type: cell-based; details: BHK cells expressing human GLP-1 receptor
Target sequence in this assay (P43220 24-463): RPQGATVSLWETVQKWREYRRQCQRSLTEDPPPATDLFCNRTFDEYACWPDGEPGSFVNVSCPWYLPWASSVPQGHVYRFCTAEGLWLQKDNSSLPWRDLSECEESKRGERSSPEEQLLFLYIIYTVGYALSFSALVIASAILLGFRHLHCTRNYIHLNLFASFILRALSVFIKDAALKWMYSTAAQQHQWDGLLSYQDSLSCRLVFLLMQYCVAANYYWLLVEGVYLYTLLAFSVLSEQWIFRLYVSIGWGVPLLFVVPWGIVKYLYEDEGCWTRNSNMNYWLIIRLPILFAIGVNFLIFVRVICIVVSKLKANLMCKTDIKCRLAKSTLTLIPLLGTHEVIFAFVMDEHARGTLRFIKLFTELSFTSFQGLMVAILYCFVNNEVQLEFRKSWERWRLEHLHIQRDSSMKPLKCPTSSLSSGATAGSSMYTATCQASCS

human GLP-1 receptor [6] = biological target: T1, human GLP-1 receptor
[7] = female, C57B1/6J, mouse, plasma, sc
[8] = mice, s.c., Compound 1 dose 323 nmol/kg, Compound 5 dose 62 nmol/kg
[9] = plasma, T1/2 Mean Value, Göttingen mini-pigs, N=3
[10] = GLP1R CRE luc 1% HSA EC50 Mean Value, 1% HSA

Molecule: [Glu15,Glu16,Lys17,Ala18,Lys20,Glu21,Ile23,Ala24,Leu27,Glu28,Lys29]-Glucagonyl-(1-29)-Aib-Lys-Glu-Phe-Leu amide (peptide)
CRE luciferase EC50, 0% HSA (human GLP-1 receptor [1]): 0.086 nM
CRE luciferase EC50, 1% HSA (human GLP-1 receptor [1]): 0.044 nM

Molecule: CC[C@H](C)[C@H](NC(=O)[C@H](Cc1ccccc1)NC(=O)[C@H](CCC(=O)O)NC(=O)[C@H](CCCCN)NC(=O)[C@@H](NC(=O)[C@H](C)NC(=O)[C@H](CCC(=O)O)NC(=O)CNC(=O)[C@H](CCC(=O)O)NC(=O)[C@H](CC(C)C)NC(=O)[C@H](Cc1ccc(O)cc1)NC(=O)[C@H](CO)NC(=O)[C@H](CO)NC(=O)[C@@H](NC(=O)[C@H](CC(=O)O)NC(=O)[C@H](CO)NC(=O)[C@@H](NC(=O)[C@H](Cc1ccccc1)NC(=O)[C@@H](NC(=O)CNC(=O)[C@H](CCC(=O)O)NC(=O)C(C)(C)NC(=O)[C@@H](N)Cc1c[nH]cn1)[C@@H](C)O)[C@@H](C)O)C(C)C)C(C)C)C(=O)N[C@@H](C)C(=O)N[C@@H](Cc1c[nH]c2ccccc12)C(=O)N[C@@H](CC(C)C)C(=O)N[C@H](C(=O)N[C@@H](CCC(=O)O)C(=O)N[C@@H](CCCCN)C(=O)N[C@H](C(=O)N[C@@H](CCCCN)C(=O)N[C@@H](CCC(=O)O)C(=O)N[C@@H](Cc1c[nH]cn1)C(=O)N[C@@H](CC(C)C)C(N)=O)C(C)C)C(C)C [Compound 5, [Aib8,Glu23,Val25,Glu34,Lys35,Val36,Lys37]-GLP-1-(7-37)-peptidyl-Glu-His-Leu amide] (H-H[Aib]EGTFTSDVSSYLEGEAVKEFIAWLVEKVKEHL-NH2)
4 h Cholesterol Efflux Emax [2]: 111%
half-life ([3]; female, C57B1/6J, mouse, plasma, iv): 5.9 h
Vd ([3]; female, C57B1/6J, mouse, plasma, iv, read-out: Volume of distribution): 0.048 L/kg
Tmax [3, 7]: 4 h
half-life [3, 7]: 9.7 h
clearance ([3]; mice, i.v., Compound 1 dose 99 nmol/kg, Compound 5 dose 135 nmol/kg): 5.6 mL/h/kg
Volume of distribution [3, 8]: 0.1164 L/kg
clearance [3, 8]: 8.298 mL/h/kg
C0 ([4]; plasma): 63.3 nM
Vd ([4]; plasma): 0.128 L/kg
clearance ([4]; plasma): 3.87 mL/h/kg
half-life ([4]; plasma, T1/2, mini-pigs): 23 h
half-life [4, 9]: 23 h
EC50 (human GLP-1 receptor [5]; [10]): 0.116 nM

Molecule: Exendin-4(1-39) (ligand)
CRE luciferase EC50, 0% HSA (human GLP-1 receptor [6]): 0.005 nM
CRE luciferase EC50, 1% HSA (human GLP-1 receptor [6]): 0.004 nM

Molecule: [Glu15,Glu16,Gln17,Ala18,Lys20,Glu21,Ile23,Ala24,Leu27,Glu28,Lys29]-Glucagonyl-(1-29)-Aib-Lys-Glu-Phe-Leu amide (peptide)
CRE luciferase EC50, 0% HSA (human GLP-1 receptor [1]): 0.118 nM
CRE luciferase EC50, 1% HSA (human GLP-1 receptor [1]): 0.061 nM

Molecule: [Aib2,Gly16,Lys17,Arg20,Glu21,Leu27,Glu28,Lys29]-Glucagonyl-(1-29)-Aib-Lys-Glu-Phe-Leu amide (peptide)
CRE luciferase EC50, 0% HSA (human GLP-1 receptor [1]): 0.591 nM
CRE luciferase EC50, 1% HSA (human GLP-1 receptor [1]): 0.297 nM

Molecule: CC(C)C[C@H](NC(=O)[C@H](Cc1ccccc1)NC(=O)[C@H](CCC(=O)O)NC(=O)[C@H](CCCCN)NC(=O)C(C)(C)NC(=O)[C@H](CCCCN)NC(=O)[C@H](CCC(=O)O)NC(=O)[C@H](CC(C)C)NC(=O)[C@H](CC(C)C)NC(=O)[C@H](Cc1c[nH]c2ccccc12)NC(=O)[C@H](CCC(N)=O)NC(=O)[C@@H](NC(=O)[C@H](Cc1ccccc1)NC(=O)[C@H](CCC(=O)O)NC(=O)[C@H](CCCNC(=N)N)NC(=O)[C@H](C)NC(=O)[C@H](C)NC(=O)[C@H](CCCCN)NC(=O)[C@H](CO)NC(=O)[C@H](CC(=O)O)NC(=O)[C@H](CC(C)C)NC(=O)[C@H](Cc1ccc(O)cc1)NC(=O)[C@H](CCCCN)NC(=O)[C@H](CO)NC(=O)[C@H](Cc1ccc(O)cc1)NC(=O)[C@H](CC(=O)O)NC(=O)[C@H](CO)NC(=O)[C@@H](NC(=O)[C@H](Cc1ccccc1)NC(=O)[C@@H](NC(=O)CNC(=O)[C@H](CCC(N)=O)NC(=O)C(C)(C)NC(=O)[C@@H](N)Cc1c[nH]cn1)[C@@H](C)O)[C@@H](C)O)C(C)C)C(N)=O [Compound 26] (H-H[Aib]QGTFTSDYSKYLDSKAAREFVQWLLEK[Aib]KEFL-NH2)
4 h Cholesterol Efflux Emax [2]: 87%
EC50 ([2]; read-out: 4 h Cholesterol Efflux EC50, ABCA1-mediated efflux (CPT-cAMP induced minus non-induced)): 200 nM
C0 ([4]; in vivo): 123 nM
Vd ([4]; in vivo): 0.0549 L/kg
clearance ([4]; in vivo): 5.21 mL/h/kg
half-life ([4]; in vivo): 7.3 h
EC50 (human GLP-1 receptor [5]; GLP1R CRE luc 0% HSA EC50 Mean Value, 0% HSA): 0.393 nM
EC50 (human GLP-1 receptor [5]; [10]): 0.153 nM

The next lines start with results.

CRE luciferase EC50, 0% HSA (human GLP-1 receptor [1]): 1.63 nM
CRE luciferase EC50, 1% HSA (human GLP-1 receptor [1]): 0.908 nM
Molecule: [Aib2,Gly16,Lys17,Ala18,Arg20,Glu21,Leu27,Glu28,Lys29]-Glucagonyl-(1-29)-Aib-Lys-Glu-Phe-Leu amide (peptide)

CRE luciferase EC50, 0% HSA (human GLP-1 receptor [1]): 1.17 nM
CRE luciferase EC50, 1% HSA (human GLP-1 receptor [1]): 0.588 nM
Molecule: [Glu15,Glu16,Lys17,Lys18,Lys20,Glu21,Ile23,Ala24,Leu27,Glu28,Lys29]-Glucagonyl-(1-29)-Aib-Lys-Glu-Phe-Leu amide (peptide)

CRE luciferase EC50, 0% HSA (human GLP-1 receptor [1]): 0.08 nM
CRE luciferase EC50, 1% HSA (human GLP-1 receptor [1]): 0.049 nM
Molecule: [Aib2,His3,Glu15,Glu16,Glu17,Ala18,Lys20,Glu21,Ile23,Ala24,Leu27,Glu28,Lys29]-Glucagonyl-(1-29)-Aib-Lys-Glu-Phe-Leu amide (peptide)

C0 ([4]; plasma): 155 nM
Vd ([4]; plasma): 0.0958 L/kg
clearance ([4]; plasma): 3.47 mL/h/kg
half-life [4, 9]: 19 h
EC50 (human GLP-1 receptor [5]; 0% HSA, read-out: GLP1R CRE luc 0% HSA EC50 Mean Value): 0.077 nM
EC50 (human GLP-1 receptor [5]; [10]): 0.025 nM
Molecule: CC[C@H](C)[C@H](NC(=O)[C@H](Cc1ccccc1)NC(=O)[C@H](CCC(=O)O)NC(=O)[C@H](CCCCN)NC(=O)[C@@H](NC(=O)[C@H](C)NC(=O)[C@H](CCC(=O)O)NC(=O)CNC(=O)[C@H](CCC(=O)O)NC(=O)[C@H](CC(C)C)NC(=O)[C@H](Cc1ccc(O)cc1)NC(=O)[C@H](CO)NC(=O)[C@H](CO)NC(=O)[C@@H](NC(=O)[C@H](CC(=O)O)NC(=O)[C@H](CO)NC(=O)[C@@H](NC(=O)[C@H](Cc1ccccc1)NC(=O)[C@@H](NC(=O)CNC(=O)[C@H](CCC(=O)O)NC(=O)C(C)(C)NC(=O)[C@@H](N)Cc1c[nH]cn1)[C@@H](C)O)[C@@H](C)O)C(C)C)C(C)C)C(=O)N[C@@H](CCC(N)=O)C(=O)N[C@@H](Cc1c[nH]cn1)C(=O)N[C@@H](CC(C)C)C(=O)N[C@H](C(=O)N[C@@H](CCC(=O)O)C(=O)N[C@@H](CCCCN)C(=O)N[C@@H](CC(C)C)C(=O)N[C@@H](CCCCN)C(=O)N[C@@H](CCC(=O)O)C(=O)N[C@@H](Cc1ccccc1)C(=O)N[C@@H](CC(C)C)C(N)=O)C(C)C [Compound 87, [Aib8,Glu23,Val25,Gln30,His31,Glu34,Lys35,Leu36,Lys37]-GLP-1-(7-37)-peptidyl-Glu-Phe-Leu amide] (H-H[Aib]EGTFTSDVSSYLEGEAVKEFIQHLVEKLKEFL-NH2)
4 h Cholesterol Efflux Emax [2]: 121%

CRE luciferase EC50, 0% HSA (human GLP-1 receptor [1]): 0.393 nM
CRE luciferase EC50, 1% HSA (human GLP-1 receptor [1]): 0.153 nM
Molecule: [Aib2,Lys17,Ala18,Arg20,Glu21,Leu27,Glu28,Lys29]-Glucagonyl-(1-29)-Aib-Lys-Glu-Phe-Leu amide (peptide)

CRE luciferase EC50, 0% HSA (human GLP-1 receptor [1]): 0.434 nM
CRE luciferase EC50, 1% HSA (human GLP-1 receptor [1]): 0.198 nM
Molecule: [Lys17,Ala18,Arg20,Glu21,Leu27,Glu28,Lys29]-Glucagonyl-(1-29)-Aib-Lys-Glu-Phe-Leu amide (peptide)
